From patent US10155754B2, “Substituted 2-imino-1,3-thiazolidin-4-ones as N-arachidonoylethanolamine cellular uptake inhibitors” (UNIVERSITAT BERN, priority 2014, dated 2018) come the findings set out here.

Test [1] deals with AEA cellular uptake (U937 cells). Put plainly: [3H]-AEA cellular uptake inhibition in U937 cells. In kind it is cell-based. To be noted: final 100 nM AEA with 0.5 nM [3H]-AEA, 15 min at 37° C. Put shortly:
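U937 cells (0.5×10^6 per sample) pre-incubated with compound (100 pM–100 μM, triplicates) for 15 min at 37 °C, then given 100 nM AEA including 0.5 nM [3H]-AEA for 15 min. Filtration, washing and scintillation counting of cell-associated radioactivity; IC50 by four-parameter nonlinear regression.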

The target in a further test is T1, FAAH (Homo sapiens, UniProt O00519).
T1 construct: endogenous in cells; host or cells: U937 cell homogenate
T1 sequence (O00519 1-579): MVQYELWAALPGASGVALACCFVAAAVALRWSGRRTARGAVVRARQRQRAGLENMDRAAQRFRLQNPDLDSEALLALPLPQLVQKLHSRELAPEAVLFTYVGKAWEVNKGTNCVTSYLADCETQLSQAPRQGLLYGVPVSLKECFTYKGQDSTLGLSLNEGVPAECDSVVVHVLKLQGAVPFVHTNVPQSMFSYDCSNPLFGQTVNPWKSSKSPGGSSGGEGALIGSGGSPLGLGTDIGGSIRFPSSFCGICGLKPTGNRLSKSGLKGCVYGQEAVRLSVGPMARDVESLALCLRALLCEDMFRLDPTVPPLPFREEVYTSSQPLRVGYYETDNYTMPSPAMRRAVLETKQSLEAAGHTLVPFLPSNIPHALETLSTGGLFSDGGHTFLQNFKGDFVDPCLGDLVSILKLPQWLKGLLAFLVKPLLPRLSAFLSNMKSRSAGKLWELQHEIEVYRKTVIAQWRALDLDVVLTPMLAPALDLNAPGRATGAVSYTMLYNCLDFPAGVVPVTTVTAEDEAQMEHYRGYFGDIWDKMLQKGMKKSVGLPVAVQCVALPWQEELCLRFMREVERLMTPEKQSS
Nature of the test: FAAH activity: hydrolysis of [3H]-AEA in U937 cell homogenates. In kind it is biochemical. The note with it: [3H]-AEA hydrolysis, final 100 nM AEA, read-out: FAAH inhibition IC50. As to the method:
Hydrolysis of [^3H]-AEA by FAAH was determined as previously described in cell homogenates of U937 cells (0.18 mg protein) (Omeir et al., 1999, Biochem Biophys Res Commun, 264, 316-20; Mor et al., 2004, J Med Chem, 47, 4998-5008). Protein amounts of cell homogenates corresponded to 0.5×10^6 cells (U937), to assure best possible comparability of IC50 values as used for the AEA cellular uptake assays. URB597 was used as positive control. Protein quantification was performed using a BCA assay (Thermo Scientific). Enzyme activity was assessed by addition of vehicle or compounds in 10 μL DMSO to 490 μL homogenate in 10 mM Tris HCl, 1 mM EDTA, 0.1% (w/v) BSA fatty acid free, pH=8 and incubation for 15 min at 37° C. After, a mixture of AEA plus [ethanolamine-1-^3H]-AEA (0.5 nM) at final 100 nM was added to the homogenates and incubated for 15 min at 37° C. The reaction was stopped by addition of 1 mL ice-cold CHCl3:MeOH (1:1) followed by vigorous vortexing. Phase separation was achieved by centrifugation at 10'000×g at 4° C. for 10 min. Radioactivity of the separated aqueous phase (upper phase) containing [^3H-ethanolamine] or [^3H-glycerol] was measured by liquid scintillation counting on a Tri-Carb 2100 TR liquid scintillation analyzer after addition of 3.5 mL Ultima Gold scintillation cocktail (PerkinElmer Life Sciences). Results are expressed as hydrolysis of tritium substrate in percent of vehicle treated control. IC50 values were calculated by GraphPad®. Data are reported as means of n=3 independent experiments performed in triplicates.

Setting [2] is: Homo sapiens, U-937, U937 cells, read-out: AEA uptake IC50.
Setting [3] is: Homo sapiens, U-937, U937 cells, read-out: AEA uptake inhibition IC50.

Like-named read-outs stand apart in the source and are kept apart here. Where only a bound is given, the exact number is not on record here.

Consider `Cc1ccc(/N=C2\S/C(=C\c3ccc4[nH]ccc4c3)C(=O)N2c2ccc(C)cc2)cc1` [03_A_A, (2Z,5Z)-5-((1H-indol-5-yl)methylene)-2-(p-tolylimino)-3-p-tolylthiazolidin-4-one], for which the IC50 in test [1] (setting [2]) is 0.315 µM; at FAAH it was more than 100 µM.

On to `CC(C)CN1C(=O)/C(=C/c2ccc3[nH]ccc3c2)S/C1=N\c1ccc(F)cc1` [03_B_X, (2Z,5Z)-5-((1H-indol-5-yl)methylene)-2-(4-fluorophenylimino)-3-isobutylthiazolidin-4-one], for which the IC50 in test [1] (setting [2]) is 0.479 µM; on FAAH, more than 100 µM.

With `O=C1/C(=C/c2ccc3[nH]ccc3c2)S/C(=N\Cc2ccc(F)cc2)N1c1ccccc1` [03_P_N, (2Z,5Z)-5-((1H-indol-5-yl)methylene)-2-(4-fluorobenzylimino)-3-phenylthiazolidin-4-one], the IC50 in test [1] (setting [2]) is 0.403 µM; at FAAH, less than 10 µM.

In the case of `O=C1/C(=C/c2ccc3[nH]ccc3c2)S/C(=N\Cc2ccccc2Cl)N1c1ccccc1` [03_T_N, (2Z,5Z)-5-((1H-indol-5-yl)methylene)-2-(2-chlorobenzylimino)-3-phenylthiazolidin-4-one], the 50% inhibitory concentration (IC50) is 0.262 µM in test [1] (setting [2]) and more than 100 µM on FAAH.

`Cc1ccc(/N=C2\S/C(=C\c3ccc4[nH]cnc4c3)C(=O)N2c2ccc(C)cc2)cc1` [04_A_A, (2Z,5Z)-5-((1H-benzo[d]imidazol-5-yl)methylene)-2-(p-tolylimino)-3-p-tolylthiazolidin-4-one]: the IC50 in test [1] (setting [2]) is 0.39 µM; at FAAH, more than 100 µM.

For `Cc1ccc(/N=C2\S/C(=C\c3ccc4[nH]cnc4c3)C(=O)N2c2ccccc2)cc1` [04_A_N, (2Z,5Z)-5-((1H-benzo[d]imidazol-5-yl)methylene)-2-(p-tolylimino)-3-phenylthiazolidin-4-one], the figures for the IC50 (in test [1] (setting [2]); at FAAH) were 0.107 µM and more than 100 µM, respectively.

For `Cc1ccc(/N=C2\S/C(=C\c3ccc4[nH]cnc4c3)C(=O)N2CC(C)C)cc1` [04_A_X, (2Z,5Z)-5-((1H-benzo[d]imidazol-5-yl)methylene)-2-(p-tolylimino)-3-isobutylthiazolidin-4-one], the IC50 stood at 0.155 µM in test [1] (setting [2]) and 14.5 µM on FAAH.

For the compound `O=C1/C(=C/c2ccc3[nH]cnc3c2)S/C(=N\c2ccc(F)cc2)N1C1CCCCC1` [04_B_I, (2Z,5Z)-5-((1H-benzo[d]imidazol-5-yl)methylene)-2-(4-fluorophenylimino)-3-cyclohexylthiazolidin-4-one], the IC50 stood at 0.132 µM in test [1] (setting [2]) and 22.9 µM on FAAH.

On to `COc1ccc(N2C(=O)/C(=C/c3ccc4[nH]cnc4c3)S/C2=N\Cc2ccccc2)cc1` [04_C_F, (2Z,5Z)-5-((1H-benzo[d]imidazol-5-yl)methylene)-2-(benzylimino)-3-(4-methoxyphenyl)thiazolidin-4-one], for which the IC50 in test [1] (setting [2]) was 0.484 µM; at FAAH it was more than 10 µM.

With `COc1ccc(/N=C2\S/C(=C\c3ccc4[nH]cnc4c3)C(=O)N2c2ccccc2)cc1` [04_F_N, (2Z,5Z)-5-((1H-benzo[d]imidazol-5-yl)methylene)-2-(4-methoxyphenylimino)-3-phenylthiazolidin-4-one], the IC50 in test [1] (setting [2]) is 0.164 µM; on FAAH, more than 100 µM.

`COCc1cccc(/C=C2\S/C(=N\Cc3ccc(OC)cc3)N(c3ccccc3)C2=O)c1` [15_Q_N, (2Z,5Z)-5-(3-(methoxymethyl)benzylidene)-2-(4-methoxybenzylimino)-3-phenylthiazolidin-4-one]: the IC50 in test [1] (setting [2]) is 0.368 µM; at FAAH, less than 10 µM.

`Cc1ccc(/N=C2\S/C(=C\c3ccc(CO)cc3)C(=O)N2c2ccc(C)cc2)cc1` [22_A_A, (2Z,5Z)-5-(4-(hydroxymethyl)benzylidene)-2-(p-tolylimino)-3-p-tolylthiazolidin-4-one]: the figures for the IC50 (in test [1] (setting [2]); at FAAH) were 0.341 µM and more than 100 µM, respectively.

Turning to `Cc1ccc(/N=C2\S/C(=C\c3ccc(CO)cc3)C(=O)N2c2ccccc2)cc1` [22_A_N, (2Z,5Z)-5-(4-(hydroxymethyl)benzylidene)-2-(p-tolylimino)-3-phenylthiazolidin-4-one], the results for the IC50 (in test [1] (setting [2]); on FAAH) were 0.111 µM and 19.5 µM, respectively.

For the compound `Cc1ccc(/N=C2\S/C(=C\c3ccc(CO)cc3)C(=O)N2CC(C)C)cc1` [22_A_X, (2Z,5Z)-5-(4-(hydroxymethyl)benzylidene)-2-(p-tolylimino)-3-isobutylthiazolidin-4-], the IC50 was 0.15 µM in test [1] (setting [2]) and more than 100 µM on FAAH.

Take `Cc1ccc(N2C(=O)/C(=C/c3ccc(CO)cc3)S/C2=N\c2ccc(F)cc2)cc1` [22_B_A, (2Z,5Z)-5-(4-(hydroxymethyl)benzylidene)-2-(4-fluorophenylimino)-3-p-tolylthiazolidin-4-one]: the IC50 in test [1] (setting [2]) was 0.386 µM; on FAAH, more than 100 µM.

`O=C1/C(=C/c2ccc3c(c2)OCCO3)S/C(=N\c2ccc(F)cc2)N1C1CCCCC1` [22_B_I]: at FAAH, the IC50 was more than 100 µM.

For the compound `O=C1/C(=C/c2ccc3c(c2)OCCO3)S/C(=N\Cc2ccccc2)N1c1ccc(F)cc1` [24_C_B, (2Z,5Z)-2-(benzylimino)-3-(4-fluorophenyl)-5-((2,3-dihydrobenzo[b][1,4]dioxin-7-yl)methylene)thiazolidin-4-one], the concentration for half-maximal inhibition (IC50) on FAAH is more than 100 µM.

Consider `O=C1/C(=C/c2ccc3c(c2)OCCO3)S/C(=N\Cc2ccccc2)N1Cc1ccccc1` [24_C_C, (2Z,5Z)-3-benzyl-2-(benzylimino)-5-((2,3-dihydrobenzo[b][1,4]dioxin-7-yl)methylene)thiazolidin-4-one], for which, at FAAH, the IC50 is more than 100 µM.

As to `COc1ccc(N2C(=O)/C(=C/c3ccc4c(c3)OCCO4)S/C2=N\Cc2ccccc2)cc1` [24_C_F, (2Z,5Z)-2-(benzylimino)-5-((2,3-dihydrobenzo[b][1,4]dioxin-7-yl)methylene)-3-(4-methoxyphenyl)thiazolidin-4-one], the half-maximal inhibitory concentration (IC50) on FAAH is more than 100 µM.

On to `O=C1/C(=C/c2ccc(CO)cc2)S/C(=N\Cc2ccccc2)N1c1ccccc1` [drawing 142], for which the IC50 in test [1] (setting [3]) was 0.257 µM.

In the case of `Cc1ccc(/N=C2\S/C(=C\c3ccc(CO)cc3)C(=O)N2c2ccccc2)nc1` [drawing 143], the IC50 in test [1] (setting [3]) was 1.45 µM.

As to `Cc1ccc(/N=C2\S/C(=C\c3ccc4[nH]cnc4c3)C(=O)N2c2ccccc2)cc1` [drawing 144], in test [1] (setting [3]), the concentration for half-maximal inhibition (IC50) came to 0.107 µM.

Take `Cc1ccc(/N=C2\S/C(=C\c3ccc4[nH]cnc4c3)C(=O)N2c2ccccc2)nc1` [drawing 146]: the IC50 in test [1] (setting [3]) is 1.59 µM.

In the case of `COc1ccc(/N=C2\S/C(=C\c3ccc4[nH]cnc4c3)C(=O)N2c2ccccc2)cc1` [drawing 147], the IC50 in test [1] (setting [3]) was determined as 0.164 µM.

For `COc1ccc(/N=C2\S/C(=C\c3ccc4[nH]ccc4c3)C(=O)N2c2ccccc2)cc1` [drawing 150], the half-inhibitory concentration (IC50) in test [1] (setting [3]) came to 1.07 µM.

In the case of `O=C1/C(=C/c2ccc3[nH]ccc3c2)S/C(=N\c2ccccc2)N1Cc1ccco1` [drawing 153], the half-inhibitory concentration (IC50) in test [1] (setting [3]) came out at 0.879 µM.

For the compound `CCCCN1C(=O)/C(=C/c2ccc3[nH]cnc3c2)S/C1=N\c1ccccc1` [drawing 154], the IC50 in test [1] (setting [3]) was determined as 0.557 µM.

Take `O=C1/C(=C/c2ccc(CO)cc2)S/C(=N\c2ccccc2)N1Cc1ccccc1` [drawing 156]: in test [1] (setting [3]), the IC50 was 0.657 µM.

Take `O=C1/C(=C/c2ccc(CO)cc2)S/C(=N\c2ccccc2)N1Cc1ccco1` [drawing 157]: the IC50 in test [1] (setting [3]) stood at 1.31 µM.

`CCCCN1C(=O)/C(=C/c2ccc(CO)cc2)S/C1=N\c1ccccc1` [drawing 158]: in test [1] (setting [3]), the IC50 turned out to be 1.09 µM.

For the compound “(2Z,5Z)-5-((1H-benzo[d]imidazol-5-yl)methylene)-3-butyl-2-(phenylimino)thiazolidin-4- [03_N_G]”, in test [1] (U937 cells, read-out: AEA uptake IC50), the IC50 amounted to 0.677 µM.
